Here are results for two substances from paper PMC9112550, “Optimization of the antimicrobial peptide Bac7 by deep mutational scanning” (BMC Biology, 2022).

One data set concerns bacterial membranes. The note with it: cited from earlier work. As to the method:
We next investigated whether an increased propensity to damage membranes could be the reason for the improved antimicrobial activity of Bac7PS. Membrane damage is the most frequent way AMPs kill bacteria and is often considered the reason for high toxicity against eukaryotic cells. […] Consequently, we investigated if Bac7PS had acquired a tendency to damage membranes, which could imply a greater risk for systemic human applications. Cell damage was assessed by measuring leakage of green fluorescent protein (GFP), ex ...

In a further data set the test system is bacteria. The note with it: cited from earlier work. From the text:
One of the most intensively researched proline-rich AMPs is bactenecin-7 (Bac7). It is a 60 amino acid long linear peptide that was first isolated from bovine neutrophils. […] Measuring the antimicrobial activity of heavily mutated variants was valuable to determine the sequence-activity relationship of Bac7_1-23 because (i) the activity of specific amino acid res ... || Bac7PS excelled over Bac7_1-23 in terms of antimicrobial activity against clinical isolates including MDR bacteria and a decreased dependency on the SbmA transporter (Fig. 4a; Table 2). […] We mainly attribute the activity gain to the increased ability to penetrate membranes, which was accompanied by a slight increase in membrane damage at higher concentrations compared to Bac7_1-23 (Fig. 4b; Additional file 1 ...

A further data set concerns HEK 293 cells. The data set is classed as cell-based, human. The note with it: MTT, 24 h, 37°C, triplicates, read-out: Toxicity IC50. Here is the method: (§1) HeLa epithelioid cervix carcinoma cells (originally purchased: 93021013, Sigma Aldrich) and HEK 293 human embryonic kidney (originally purchased: 85120602, Sigma Aldrich) were routinely cultivated in Dulbecco’s MEM high glucose (DMEM, with L-glutamine, without phenol red, 1-26P32, Bioconcept, Allschwil, CH), supplemented with 10% fetal bovine serum (heat inactivated, sterile filtered, F9665, Sigma Aldrich) and 100 IU ml^−1/100 μg ml^−1 Penicillin/streptomycin (4-01F00, Bioconcept) at 37°C with 5% CO2. Cells were split at a confluency of ≤ 90% (every 3 to 4 days) and maintained for max. 10 passages before a fresh aliquot of cells were seeded. […] The cell concentration was determined using a Countess 2 device (Thermo Fisher Scientific) and approx. 5000 (HeLa) or 25,000 (HEK 293) cells were seeded into wells of a 96-well plate (F-bottom, PS, 655180, Greiner) together with 100 μl DMEM. […] For each dilution series, the IC50 value was determined by computing a weighted n-parameters logistic regression using the “nplr” package in R (https://CRAN.R-project.org/package=nplr). […]

Data set [1] has as its system E. coli TOP10. Nature of the data set: Membrane damage assay in MHB II (GFP loss, PI uptake). The data set is classed as cell-based. The note with it: at the MIC up to 8-fold higher concentrations, n = 3.
A further data set concerns HeLa cells. Nature of the data set: In vitro toxicity assay (MTT), HeLa. The data set is classed as cell-based, human. Here is the method: as §1
In another data set the test system is E. coli ATCC 25922. Format: cell-based. As to conditions: E. coli ATCC 25922 quality control strain; MHB II; 18 h, 37°C; averaged (n>3). As to the method:
(§2) Bacterial cells were grown in cation-adjusted Mueller Hinton Broth (MHB II) overnight to stationary phase. The cultures were then supplemented with 200 g l^−1 glycerol, aliquoted, and frozen at −80°C. […] The purified peptides were thawed and the concentration was determined by RP-HPLC as described before. The peptides were diluted with sterile water to 4-fold the desired assays starting concentration and to a final volume of 50 μl. […] The first well of each MIC dilution series was filled with 20 μl of 2-fold concentrated MHB II, wells 2–11 with 20 μl of MHB II, and well 12 with 40 μl MHB II (sterility control). Next, 20 μl of the peptide dilution was added to the first well, mixed, and a log2-serial dilution was performed from wells 1 to 10 (20 μl transfer volume). Well 11 served as growth control (i.e., no peptide added). In the last step, 20 μl of the bacterial cell suspension was added to wells 1–11 either using the pipetting robot (E. coli TOP10, BW25113, BW25113 ΔsbmA, and ATCC 25922) or by manual pipetting (E. coli clinical isolates). The plates were sealed airtight and incubated for 18 h without shaking at 37°C before reading the OD using an Infinite 200 PRO plate reader (Tecan, Männedorf, CH). The MIC value corresponded to the concentration at which no growth of the bacterial strain was observed (< 5% of the OD value of the growth control) and was evaluated using a custom-written script in the programming language R. MIC values of E. coli TOP10, BW25113, BW25113 ΔsbmA, and ATCC 25922 were determined at least in biological triplicates. All MIC experiments were determined in technical replicate.

For data set [2], the system named is E. coli TOP10. Format: cell-based. The note with it: MHB II, 18 h, 37°C, averaged (n>3), <5% of OD of growth control. Here is the method: as §2
The test system of the next data set is E. coli BW25113. Format: cell-based. The note with it: E. coli BW25113 parental strain; MHB II; 18 h, 37°C; averaged (n>3). Here is the method: as §2
Data set [3] concerns E. coli clinical isolates. Format: cell-based. As to conditions: clinical isolates of E. coli (n=45) including MDR (ESBL, CRE); MHB II; 18 h, 37°C. As to the method: as §2
For another data set, the system named is E. coli BW25113 ΔsbmA. The data set is classed as cell-based. Here is the method: as §2
In another data set the test system is mouse red blood cells. In words: Hemolysis assay. Format: cell-based. The note with it: 1 h, 37°C, DPBS, relative to Triton-X100 lysis control, triplicates. As to the method:
Mouse blood was obtained from the ETH Phenomics Center. The erythrocytes were isolated by centrifugation at 500 × g for 10 min and removal of the blood plasma. The cells were washed three times by gently resuspending them in an equal volume of DPBS followed by centrifugation. After the last resuspension, the cells were diluted 1:50 in DPBS. For the hemolysis assay, a log2-serial dilution of each peptide was prepared as described for the MIC but using DPBS and 96-well plates (U-bottom, PP, 650201, Greiner) with a final volume of 100 μl. As lysis control, 2.5% Triton-X100 in DPBS was used in well 10, well 11 served as non-treated control (no peptide added), and well 12 as blank. To each well of the dilution plate, 100 μl of the red blood cells suspension was added. The plate was incubated for 1 h at 37°C. After incubation, the plate was centrifuged at 500 × g for 10 min and 100 μl of the supernatant was transferred to a clean 96-well plate (F-bottom, PS, 655101, Greiner). The absorbance was measured at 540 nm using an Infinite M1000 PRO plate reader (Tecan) and corrected by the measurements from the untreated wells. The lysis of each peptide concentration was expressed relative to the lysis control (set as 100% lysis). The hemolysis assay was performed in biological triplicates.

As usually defined, the IC50 is the midpoint of a concentration-inhibition curve. What is called MIC is the least concentration at which growth counts as inhibited. For orientation: MIC50 means the lowest concentration that inhibits either 50% of growth or 50% of the strains tested, depending on the study.

“And” between values parts separate entries of the source, which are not always exact repeats. Identical values can stand only once. Where no end group is shown, it is not given here. A value given as a limit tells only on which side of the number the result lay.

“Bac7: 60 amino acid long linear peptide first isolated from bovine neutrophils”: in the data set with bacterial membranes, the “damage of bacterial membranes at its MIC” value is reported as “not damage bacterial membranes”. Further, the “activity against species of Gram-negative Enterobacteriaceae” value in the data set with bacteria is on record as “high activity”.

In the case of RRIRPRPPRLPRPRPRPLPFPRP [Bac7_1-23], the IC50 in the data set on HEK 293 cells was 1970 µM; in the data set on HeLa cells (HeLa, MTT, 24 h, 37°C, triplicates), 1460 µM. Besides, the PI-positive cells in the data set with E. coli TOP10 [1] was ~ 1%. Also, the “cells that retained GFP levels” value in the data set on E. coli TOP10 [1] is on record as ~ 99%. Moreover, the “therapeutic index (TI), Toxicity/MIC” value in the data set with HeLa cells (IC50 HeLa divided by MIC50 from clinical isolates) was 195. The MIC is 2.8 µM against E. coli ATCC 25922; 4.6 µM against E. coli TOP10 [2]; 7.4 µM with E. coli BW25113; 52.1 µM against E. coli BW25113 ΔsbmA (MHB II, 18 h, 37°C, averaged (n>3)). In data set [3], the MIC50 was determined as 7.5 µM. In the data set on E. coli BW25113 ΔsbmA, the “antimicrobial activity against the SbmA transporter knockout strain” value was “largely inactive”. Besides, the “Hemolysis of mouse red blood cells” value was < 4% and 2.1% in the data set on mouse red blood cells (1xMIC (MIC measured for E. coli ATCC 25922)); < 7% and 6.4% in the data set with mouse red blood cells (4xMIC (MIC measured for E. coli ATCC 25922)).
